Columns and labels:
mushroom tyrosinase = experiment: Tyrosinase activity inhibition test using L-dopa as substrate (Test Examples 3 to 6, microplate reader, 490 nm); format: biochemical; settings: Table 6, 0.50 mg/mL
Experimental: Using the compound 37 obtained in Example 21, the compound 38 obtained in Example 22, the compound 39 obtained in Example 23, and arbutin (manufactured by Tokyo Kasei Kogyo Co., Ltd.) as a comparative control, a tyrosinase activity inhibition test was carried out using L-dopa as a substrate.
The specific test procedures are as follows. • (1) 72 μl of a phosphate buffer prepared by dissolving 1.000 g of sodium dihydrogen phosphate and 1.186 g of disodium hydrogen phosphate in 500 ml of distilled water, 80 μl of a substrate solution prepared by dissolving 32.7 mg of L-DOPA in 200 ml of distilled water, and 8 μl of a test solution prepared by dissolving the test compound in dimethyl sulfoxide were mixed together. • (2) 80 μl of an enzyme solution prepared by dissolving 3.0 mg (2400 units; manufactured by Sigma Corporation) of mushroom tyrosinase in 7.0 ml of distilled water and diluting the solution with the above phosphate buffer so as to make it five times in amount was added to the solution prepared in (1), and the whole was stirred for 15 seconds. The resulting solution was maintained at 25° C., and the absorbance at 490 nm was measured by a microplate reader one minute and 45 seconds later and 2 minutes and 45 seconds later. • (3) The test operations in the above (1) and (2) were conducted four times for the individual test compounds and blank test (only dimethyl sulfoxide), and the resulting numeric value was inserted in the following calculation formula and a mean value thereof was regarded as a tyrosinase activity inhibition ratio (%). Tyrosinase activity inhibition ratio (%)=[(T^1−T^2)/T^1]×100 • T^1=difference in absorbance of solution with addition of no test compound between 2 minutes and 45 seconds later and one minute and 45 seconds later • T^2=difference in absorbance of solution with addition of test compound was added between 2 minutes and 45 seconds later and one minute and 45 seconds later
(§1) Using the compound 42 obtained in Example 26, the compound 45 obtained in Example 29, the compound 46 obtained in Example 30, and arbutin (manufactured by Tokyo Kasei Kogyo Co., Ltd.) as a comparative control, a tyrosinase activity inhibition test was carried out using L-dopa as a substrate. The test procedure was in accordance with Test Example 3.
as §1, with “34” for “42”, “18,” for “26,”, “47” for “45”, “31,” for “29, the compound 46 obtained in Example 30,”
Using the compound 48 obtained in Example 32 and arbutin (manufactured by Tokyo Kasei Kogyo Co., Ltd.) as a comparative control, a tyrosinase activity inhibition test was carried out using L-dopa as a substrate. The test procedure was in accordance with Test Example 3.

[1] = Test of scavenging DPPH radical (Test Example 9, microplate reader, 540 nm); settings: final concentration of 25 μg/mL; 20 minutes, room temperature
Excerpt: Using the compound 36 obtained in Example 20, the compound 37 obtained in Example 21, the compound 38 obtained in Example 22, the compound 39 obtained in Example 23, the compound 40 obtained in Example 24, the compound 42 obtained in Example 26, the compound 45 obtained in Example 29, the compound 46 obtained in Example 30, the compound 48 obtained in Example 32 and, as a comparative control, dl-α-tocopherol (manufactured by Tokyo Kasei Kogyo Co., Ltd.), a test of scavenging DDPH (1,1-diphenyl-2-picrylhydrazyl) radical, a stable radical, was carried out.
100 μl of 800 μM DPPH ethanol solution was added to 80 μl of 100 mM Tris-HCl buffer (pH 7.4) and 20 μl of an ethanol solution of the compound 36 (final concentration of 25 μg/mL), followed by sufficient stirring. After the resulting mixture was allowed to stand in a dark place at room temperature for 20 minutes, the absorbance at 540 nm was measured on a microplate reader (absorbance of the test solution).
The compounds 37, 38, 39, 40, 42, 45, 46, and 48 of the invention as well as dl-α-tocopherol as a known radical scavenger were similarly tested.
As a control, using 80 μl of 100 mM Tris-HCl buffer (pH 7.4), 20 μl of ethanol, and 100 μl of 800 μM DPPH ethanol solution, the same operation was carried out as described above and the absorbance was measured (absorbance of the control solution).
With the individual compounds, the same measurement was repeated four times, and the mean value was inserted in the following formula to calculate a DPPH radical-scavenging ratio. DPPH radical-scavenging ratio (%)=[1−(absorbance of sample solution/absorbance of control solution)]×100

[2] = Test of suppressing lipid peroxide formation using linoleic acid
Experimental: Using the compound 7 obtained in Example 2, the compound 38 obtained in Example 22, the compound 40 obtained in Example 24, the compound 42 obtained in Example 26, the compound 46 obtained in Example 30, and as a comparative control, dl-α-tocopherol (manufactured by Tokyo Kasei Kogyo Co., Ltd.), a test of suppressing lipid peroxide formation was carried out using linoleic acid.
(1) After ethanol (2.0 g) was added to linoleic acid (0.2 g, manufactured by Tokyo Kasei Kogyo Co., Ltd.), the compound 7 (0.01 g), and a surfactant Nissan OT-221 (0.4 g, manufactured by NOF Corporation) placed in a 50-ml screw vial and they was dissolved one another, distilled water (17.39 g) was added to the resulting solution and the whole was stirred. Then, the whole was tightly sealed and allowed to stand in a constant-temperature chamber at 40° C. Such sample was prepared in a duplex manner.
The same operation was carried out on the compounds 38, 40, 42, 46, dl-α-tocopherol, and a sample with addition of no test compound (blank).
(2) The amount of remaining linoleic acid after one week, 2 weeks, 3 weeks, and 4 weeks from the start of the test was quantitatively determined by HPLC.
The HPLC analytical conditions were as follows: Wavelength for detection: 210 nm; Mobile phase: a mixed solution of a Mc Ilvaine buffer adjusted to pH 2.6 and methanol (10:90); Flow rate: 1 ml/min; Column: ODS-80Ts (4.6 φmm×150 mm); and Column temperature: 40° C.
(3) Quantitative determination by HPLC was carried out on each sample one time. The ratio of remaining linoleic acid was calculated on the basis of the mean value of values obtained in two-times measurement.

[3] = Test of scavenging DPPH radical (Test Example 8, 517 nm); settings: final concentration of 10 μg/mL; 20 minutes, room temperature
Experimental: Using the compound 7 obtained in Example 2 as well as dl-α-tocopherol (manufactured by Tokyo Kasei Kogyo Co., Ltd.) and butylhydroxytoluene (BHT) as comparative controls, a test of scavenging DDPH (1,1-diphenyl-2-picrylhydrazyl) radical, a stable radical, was carried out.
1 ml of 200 μM DPPH ethanol solution was added to 800 μl of 100 mM Tris-HCl buffer (pH 7.4) and 200 μl of an ethanol solution of the compound 7 (a final concentration of 10 μg/mL), followed by sufficient stirring. After the resulting mixture was allowed to stand in a dark place at room temperature for 20 minutes, the absorbance at 517 nm was measured (absorbance of the test solution)
The compound 13 of the invention as well as dl-α-tocopherol and butylhydroxytoluene as a known radical scavenger were similarly tested.
As a control, 800 μl of 100 mM Tris-HCl buffer (pH 7.4), 200 μl of ethanol, and 1 ml of 200 μM DPPH ethanol solution were used in the same manner as described above and the absorbance was measured (absorbance of the control solution).
With the individual compounds, the same measurement was repeated three times, and the mean value was inserted in the following formula to calculate a DPPH radical-scavenging ratio (%). DPPH radical-scavenging ratio (%)=[1−(absorbance of sample solution/absorbance of control solution)]×100

COc1cc(CCC(O)CC(CCCCCCO)OC)ccc1O (stereo not drawn) [Compound 48]
Tyrosinase activity inhibition ratio (%) (mushroom tyrosinase; 0.25 mg/mL): 38.2% | Tyrosinase activity inhibition ratio (%) (mushroom tyrosinase; 0.5 mg/mL): 47.1% | DPPH radical-scavenging ratio (%) [1]: 33.5%

Cc1c(C)c2c(c(C)c1O)CCC(C)(CCCC(C)CCCC(C)CCCC(C)C)O2 (racemic) [Tocopherol, dl-α-tocopherol]
DPPH radical-scavenging ratio (%) [1]: 14.9% | Ratio of remaining linoleic acid (%) ([2]; After 1 week at 40° C.): 88.7% | Ratio of remaining linoleic acid (%) ([2]; After 2 weeks at 40° C.): 81.3% | Ratio of remaining linoleic acid (%) ([2]; After 3 weeks at 40° C.): 69.7% | Ratio of remaining linoleic acid (%) ([2]; After 4 weeks at 40° C.): 50.0% | DPPH radical-scavenging ratio (%) [3]: 28.4%

Reference: patent US7355063B2, “Shogaol compound and tyrosinase activity inhibitor comprising the compound” (Toagosei Co., Ltd., priority 2003, dated 2008)
